In brackets after ≈: the same amount, converted by molar mass. Structures can show the parent of a compound that is named as a salt. Where two headings read alike, the source gives them in different places.
Columns and labels:
[1] = system: Hep G2 (hepatocellular carcinoma); assay: MTT cell viability assay, Hep G2; type: cell-based; conditions: Homo sapiens, HepG2, 24 h incubation, read-out: Cytotoxicity EC50, Hep G2
From the text: (§1) Human erythrocytes were purchased from the blood transfusion station Vladivostok. Human breast cancer cell lines MCF-7^HTB−22, and MDA-MB-231^CRM-HTB−26, liver hepatocellular carcinoma Hep G2^HB−8065, prostate adenocarcinoma PC-3^CRL−1435, cervical adenocarcinoma HeLa^CRM-CCL−2, and normal bronchial epithelial cells BEAS-2B ^CRL−3588 were received from ATCC (Manassas, VA, USA).
(§2) DMEM medium (Biolot, Russia) with 1% penicillin/streptomycin and 10% fetal bovine serum (FBS) (Biolot, Russia) was used for cultivation of Hep G2, PC-3, HeLa, and Beas-2b. MEM medium (Biolot, Russia) with 1% penicillin/streptomycin sulfate (Biolot, Russia) and FBS (Biolot, Russia) to a final concentration of 10% for MCF-7 and MDA-MB-231 cells.
(§3) The effect of the studied compounds on the viability of human cancer and normal cells was determined using the MTT (3-[4,5-dimethylthiazol-2-yl]-2,5 diphenyl tetrazolium bromide) assay. Briefly, 6 × 10^3 cells per well were seeded into 96-well plates and incubated for 24 h for adhesion, followed by incubation for 24 h with different concentrations of the substances. After incubation, the medium containing the test substances was replaced with 100 µL of fresh medium. Then, 10 μL of MTT (Sigma-Aldrich, Madison, WI, USA) reagent (5 mg/mL MTT in PBS) was added into the cells and the plates for additional 4 h. Thereafter, 100 µL of SDS-HCl solution (1 g SDS/10 mL dH2O/17 µL 6N HCl) was added to each well and incubated for 18 h. The absorbance of the converted formazan dye was measured using a Multiskan FC microplate photometer (Thermo Scientific, Waltham, MA, USA) at a wavelength of 570 nm. All experiments were performed in triplicate. Cytotoxic activity was expressed as a percentage of the cell viability.

HeLa (cervical cancer) = assay: MTT cell viability assay, HeLa; type: cell-based, human; conditions: Homo sapiens, HeLa, 24 h, 24 h incubation, read-out: Cytotoxicity EC50, HeLa
From the text: as §1, §2, §3

HeLa cells = assay: Colony formation (clonogenic) assay; type: cell-based; conditions: Homo sapiens, 336 h, 14 days
Experimental: The effect of the test compounds on HeLa cell proliferation was analyzed using a clonogenic assay. Briefly, HeLa cells were cultured in 6-well plates at a density of 1 × 10^2 cells per well, and compounds were added at concentrations of 5 or 10 μM. Untreated culture medium was used as a control. […] Before fixation and staining, the medium was removed and the cells were washed twice with PBS. The colonies were then fixed with methanol for 25 min and stained with 0.5% crystal violet for 25 min at room temperature. The plates were then washed with water and air-dried.

[2] = MTT cell viability assay, BEAS-2B normal cells; type: cell-based; conditions: human, BEAS-2B normal bronchial epithelial cells, 24 h incubation, read-out: Cytotoxicity EC50, BEAS 2B
From the text: as §1, §2, §3

[3] = system: Escherichia coli (VKPM B-7935); assay: Inhibition of biofilm formation (MTT); type: cell-based; conditions: 24 h
Experimental: (§4) Biofilm formation was performed according to the method described by Walencka et al., with minor modifications. The compounds were dissolved in dimethyl sulfoxide (DMSO) at a concentration of 10 mM and stored at −20 °C. Before the experiment, the solution of substances in DMSO was diluted with PBS at a concentration of 0.5–100.0 µM and added to the wells so that the concentration of DMSO in the culture medium was less than 1%. Biofilm formation was assessed in 96-well microplates in a liquid Mueller–Hinton nutrient medium. For S. aureus, E. coli, and C. albicans, a bacterial suspension of 10^6 CFU in 1 mL of medium was used, 90 μL was added to each well of the microplates and then incubated in a thermostatted shaker at 37 °C for 24 h. After incubation, the suspension of planktonic microorganisms was removed from the plate and washed with PBS. Next, 100 μL of PBS and 10 μL of MTT (3-(4,5-dimethylthiazol-2-yl)-2,5-diphenyltetrazolium bromide, MTT reagent, Sigma) stock solution (5 mg/mL) were added to the wells and incubated for 3 h at 37 °C. After incubation, all the solution was removed from the wells, 100 μL of DMSO was added, and the plate was shaken for 10 min until all formazan crystals had dissolved. The absorption was measured using a plate reader (Thermo Fisher Scientific, Waltham, MA, USA) at a wavelength of 570 nm. The activity of the substances was assessed by the change in optical density compared with that of the control. All experiments were performed in triplicate. Gentamicin (S. aureus and E. coli) and nitrofungin (C. albicans) were used as positive controls, and 1% DMSO in PBS was used as a negative control.

[4] = system: Staphylococcus aureus (ATCC 21027); assay: Inhibition of biofilm formation (MTT); type: cell-based; conditions: 24 h
Experimental: as §4

[5] = system: Escherichia coli (VKPM B-7935); assay: Antimicrobial activity, inhibition of microbial growth (optical density); type: cell-based; conditions: 18 h, OD 620 nm, read-out: Inhibition of Microbial Growth MIC50, E. coli
Experimental: (§5) The antimicrobial activity of the compounds was determined against Gram-positive bacteria Staphylococcus aureus (ATCC 21027), Gram-negative bacteria Escherichia coli (VKPM B-7935), and yeast-like fungi Candida albicans (KMM 455) (all test strains were obtained from the Collection of Marine Microorganisms KMM PIBOC FEB RAS) in liquid nutrient media. Test cultures of S. aureus, E. coli, and C. albicans were grown in Petri dishes on a solid nutrient medium (Mueller–Hinton broth with the addition of agar—16.0 g/L) at 37 °C for 24 h. The antimicrobial activity of the compounds was determined by the change in optical density and expressed as the percentage of bacterial inhibition at different concentrations of substances added to the well of the microorganism suspension, compared to the control. The compounds were dissolved in dimethyl sulfoxide (DMSO) at a concentration of 10 mM and stored at −20 °C. Before the experiment, the solution of substances in DMSO was diluted with PBS at a concentration of 0.5–100.0 µM and added to the wells so that the concentration of DMSO in the culture medium was less than 1%. Antimicrobial activity was determined in 96-well microplates in a liquid Mueller–Hinton nutrient medium. For S. aureus, E. coli, and C. albicans, a bacterial suspension of 10^6 CFU in 1 mL of the media was used, 90 μL was added to each well of the microplates and then incubated in a thermostatted shaker at 37 °C for 18 h. Inhibition of microorganism growth was assessed by measuring the optical density at 620 nm using a microplate reader (Thermo Fisher Scientific, Waltham, MA, USA) after preliminary shaking of the plates for 10 min. All experiments were performed in triplicate. Gentamicin (S. aureus and E. coli) and nitrofungin (C. albicans) were used as positive controls, and 1% DMSO in PBS was used as a negative control.

[6] = system: Candida albicans (KMM 455); assay: as above; type: cell-based; conditions: 18 h, OD 620 nm, read-out: Inhibition of Microbial Growth MIC50, C. albicans
Experimental: as §5

[7] = system: Staphylococcus aureus (ATCC 21027); assay: as above; type: cell-based; conditions: 18 h, OD 620 nm, read-out: Inhibition of Microbial Growth MIC50, S. aureus
Experimental: as §5

[8] = system: MDA-MB-231 (triple-negative breast cancer); assay: MTT cell viability assay, MDA-MB-231; type: cell-based, human; conditions: Homo sapiens, MDA-MB-231, 24 h, 24 h incubation, read-out: Cytotoxicity EC50, MDA-MB-231 (TNBC)
From the text: as §1, §2, §3

Human erythrocytes = assay: Hemolytic activity (destruction of erythrocyte membranes); type: cell-based
From the text: as §1

[9] = system: Candida albicans (KMM 455); assay: Inhibition of biofilm formation (MTT); type: cell-based; conditions: 24 h
Experimental: as §4

[10] = Staphylococcus aureus, ATCC21027

Compound	EC50 [1]	EC50 (HeLa (cervical cancer))	inhibition at 10 µM (HeLa cells)	EC50 at 24 h [2]	Inhibition of Biofilm Formation MIC50, E. coli [3]	Inhibition of Biofilm Formation MIC50, S. aureus [4]	MIC50 ([5]; Escherichia coli)	MIC50 ([6]; Candida albicans, KMM455)	MIC50 [7, 10]	EC50 [8]	Hemolytic activity, erythrocytes (Human erythrocytes)	Inhibition of Biofilm Formation MIC50, C. albicans [9]	inhibition at 5 µM (HeLa cells; 5 µM, read-out: Colony growth inhibition)	MIC50 [5]	MIC50 [6]	MIC50 [7]
CC(=O)OC[C@H]1O[C@@H](SSc2sc(N)nc2-c2ccc(Br)cc2)[C@H](OC(C)=O)[C@@H](OC(C)=O)[C@@H]1OC(C)=O [Compound 4c, 5-[(2,3,4,6-Tetra-O-acetyl-β-D-glucopyranosyl)disulfanyl]-2-amino-4-(4-bromophenyl)thiazole]	24.3 µM	19.4 µM	76%	15.5 µM	8.04 µM	7.94 µM	6.9 ± 0.5 µM (≈ 4.48 µg/mL)	7.1 ± 0.7 µM (≈ 4.61 µg/mL)	2.3 ± 0.3 µM (≈ 1.49 µg/mL)	21.7 µM	> 25 µM	–	–	–	–	–
CC(=O)OC[C@H]1O[C@@H](SSc2sc(N)nc2-c2ccc(Cl)cc2)[C@H](OC(C)=O)[C@@H](OC(C)=O)[C@@H]1OC(C)=O [Compound 4d, 5-[(2,3,4,6-Tetra-O-acetyl-β-D-glucopyranosyl)disulfanyl]-2-amino-4-(4-chlorophenyl)thiazole]	> 25 µM	> 25 µM	–	14.1 µM	–	–	16.1 ± 1.7 µM (≈ 9.74 µg/mL)	6.9 ± 0.9 µM (≈ 4.18 µg/mL)	19.2 ± 2 µM (≈ 11.6 µg/mL)	22.9 µM	–	7.03 µM	–	–	–	–
COc1ccc(-c2nc(N)sc2SS[C@@H]2OC[C@@H](OC(C)=O)[C@H](OC(C)=O)[C@H]2OC(C)=O)cc1 [Compound 4f, 5-[(2,3,4-Tri-O-acetyl-β-D-xylopyranosyl)disulfanyl]-2-amino-4-(4-methoxyphenyl)thiazole]	22.6 µM	20.4 µM	78%	23.5 µM	–	–	39.5 ± 4 µM (≈ 20.9 µg/mL)	34.1 ± 2.1 µM (≈ 18 µg/mL)	32.1 ± 3.7 µM (≈ 17 µg/mL)	22.9 µM	–	–	~16%	–	–	–
CC(=O)O[C@@H]1[C@@H](OC(C)=O)[C@H](SSc2sc(N)nc2-c2ccc(Cl)cc2)OC[C@H]1OC(C)=O [Compound 4i, 5-[(2,3,4-Tri-O-acetyl-β-D-xylopyranosyl)disulfanyl]-2-amino-4-(4-chlorophenyl)thiazole]	> 25 µM	> 25 µM	–	> 25 µM	–	6.25 µM	8.7 ± 0.9 µM (≈ 4.64 µg/mL)	2.8 ± 0.3 µM (≈ 1.49 µg/mL)	3.1 ± 0.3 µM (≈ 1.65 µg/mL)	> 25 µM	> 25 µM	4.08 µM	–	–	–	–
Cl.Nc1nc(-c2ccc(Br)cc2)c(SS[C@@H]2O[C@H](CO)[C@@H](O)[C@H](O)[C@H]2O)s1 [Compound 5c, 5-[(β-D-glucopyranosyl)disulfanyl]-2-amino-4-(4-bromophenyl)thiazole hydrochloride]	> 25 µM	> 25 µM	–	> 25 µM	–	–	5 ± 0.5 µM	1.6 ± 0.2 µM	3 ± 0.2 µM	> 25 µM	> 25 µM	8.69 µM	–	–	–	–
Nc1nc(-c2ccc(Cl)cc2)c(SS[C@@H]2O[C@H](CO)[C@@H](O)[C@H](O)[C@H]2O)s1 [Compound 5d, 5-[(β-D-glucopyranosyl)disulfanyl]-2-amino-4-(4-clorophenyl)thiazole hydrochloride]	> 25 µM	> 25 µM	–	> 25 µM	6.00 µM	–	6.6 ± 0.5 µM	3.1 ± 2.3 µM	2.5 ± 0.2 µM	> 25 µM	> 25 µM	–	–	–	–	–
Cl.Nc1nc(-c2ccc(Br)cc2)c(SS[C@@H]2OC[C@@H](O)[C@H](O)[C@H]2O)s1 [Compound 5h, 5-[(β-D-xylopyranosyl)disulfanyl]-2-amino-4-(4-bromophenyl)thiazole hydrochloride]	> 25 µM	> 25 µM	–	23.5 µM	8.92 µM	–	3.1 ± 0.3 µM	1.6 ± 0.1 µM	1.2 ± 0.1 µM	> 25 µM	> 25 µM	3.21 µM	–	3.08 µM	1.56 µM	1.15 µM
Cc1ccc(-c2nc(N)sc2SS[C@@H]2OC[C@@H](O)[C@H](O)[C@H]2O)cc1.Cl [Compound 5j, 5-[(β-D-xylopyranosyl)disulfanyl]-2-amino-4-(p-tolyl)thiazole hydrochloride]	> 25 µM	> 25 µM	–	> 25 µM	5.62 µM	–	38 ± 3 µM	15.9 ± 1.1 µM	34.5 ± 3 µM	> 25 µM	–	–	–	–	–	–
